Measured values from patent publication US20220152188A1, “TLR4-TLR7 LIGAND FORMULATIONS AS VACCINE ADJUVANTS” (The Regents of the University of California, priority 2019, published 2022).

Legend:
Type in all cases: cell-based
Conditions in all cases: Compound 1 = 100
IL-8 = assay: IL-8, human (Tables 1-3)
IP-10 = assay: IP-10, mouse (Tables 1-3)
TLR4 [1] = molecular target: T1, TLR4 (Mus musculus, UniProt Q9JHF9+Q9QUK6); assay: TLR4, mouse (Tables 1-3)
T1 sequence (Q9QUK6 26-835): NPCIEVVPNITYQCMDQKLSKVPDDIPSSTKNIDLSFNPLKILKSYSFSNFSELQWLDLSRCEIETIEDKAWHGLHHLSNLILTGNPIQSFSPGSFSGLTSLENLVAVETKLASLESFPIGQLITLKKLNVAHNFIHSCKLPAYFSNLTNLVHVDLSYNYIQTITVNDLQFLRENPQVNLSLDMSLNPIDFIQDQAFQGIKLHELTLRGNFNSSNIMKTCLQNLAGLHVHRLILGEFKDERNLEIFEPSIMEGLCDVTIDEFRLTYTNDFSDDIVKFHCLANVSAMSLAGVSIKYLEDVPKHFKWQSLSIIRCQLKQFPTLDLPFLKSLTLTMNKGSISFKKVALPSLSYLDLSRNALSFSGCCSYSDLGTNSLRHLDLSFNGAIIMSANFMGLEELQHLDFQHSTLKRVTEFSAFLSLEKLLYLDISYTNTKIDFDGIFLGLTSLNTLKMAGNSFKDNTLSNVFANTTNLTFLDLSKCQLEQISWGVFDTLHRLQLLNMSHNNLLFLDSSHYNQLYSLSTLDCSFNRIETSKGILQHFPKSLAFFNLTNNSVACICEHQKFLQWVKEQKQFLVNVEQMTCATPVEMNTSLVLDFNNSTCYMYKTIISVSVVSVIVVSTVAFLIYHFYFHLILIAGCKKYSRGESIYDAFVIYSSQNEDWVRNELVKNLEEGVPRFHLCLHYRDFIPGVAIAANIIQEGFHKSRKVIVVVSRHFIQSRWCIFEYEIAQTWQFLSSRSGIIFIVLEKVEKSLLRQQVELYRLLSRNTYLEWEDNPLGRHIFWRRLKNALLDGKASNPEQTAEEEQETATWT
T1 sequence (Q9JHF9 19-160): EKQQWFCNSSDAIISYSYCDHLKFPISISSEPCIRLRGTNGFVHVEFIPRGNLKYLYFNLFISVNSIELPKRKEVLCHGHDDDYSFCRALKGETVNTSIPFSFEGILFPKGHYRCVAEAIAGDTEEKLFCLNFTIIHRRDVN

TLR4 [2] = molecular target: TLR4 (Homo sapiens, UniProt O00206+Q9Y6Y9); assay: TLR4, human (Tables 1-3)
IL-6 = assay: IL-6, mouse (Tables 1-3)
Also: test concentration or dose not given here.

TLR4 (Homo sapiens, UniProt O00206+Q9Y6Y9), sequence (O00206 24-839): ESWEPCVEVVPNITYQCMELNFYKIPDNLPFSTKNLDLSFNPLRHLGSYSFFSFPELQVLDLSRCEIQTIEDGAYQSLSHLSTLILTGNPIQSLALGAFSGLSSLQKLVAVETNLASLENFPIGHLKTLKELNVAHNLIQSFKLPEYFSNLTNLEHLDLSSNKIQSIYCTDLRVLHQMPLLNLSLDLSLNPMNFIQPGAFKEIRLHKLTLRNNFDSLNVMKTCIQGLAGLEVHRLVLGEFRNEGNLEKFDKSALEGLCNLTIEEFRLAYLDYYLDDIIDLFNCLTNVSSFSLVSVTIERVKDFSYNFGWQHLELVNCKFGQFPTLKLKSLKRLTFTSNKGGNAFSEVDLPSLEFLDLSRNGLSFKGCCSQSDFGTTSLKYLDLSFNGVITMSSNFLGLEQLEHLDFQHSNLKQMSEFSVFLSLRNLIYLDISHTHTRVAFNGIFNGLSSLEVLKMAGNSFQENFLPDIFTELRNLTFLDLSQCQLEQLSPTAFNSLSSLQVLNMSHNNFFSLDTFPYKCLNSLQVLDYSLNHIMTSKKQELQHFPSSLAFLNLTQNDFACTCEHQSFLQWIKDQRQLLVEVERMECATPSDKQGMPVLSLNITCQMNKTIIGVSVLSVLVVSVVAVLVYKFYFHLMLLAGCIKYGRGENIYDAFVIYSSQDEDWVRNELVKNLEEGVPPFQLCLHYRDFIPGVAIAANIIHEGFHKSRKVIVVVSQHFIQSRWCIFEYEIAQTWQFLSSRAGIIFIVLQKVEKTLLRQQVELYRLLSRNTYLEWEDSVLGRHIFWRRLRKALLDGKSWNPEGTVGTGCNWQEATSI
TLR4 (Homo sapiens, UniProt O00206+Q9Y6Y9), sequence (Q9Y6Y9 17-160 limits assumed): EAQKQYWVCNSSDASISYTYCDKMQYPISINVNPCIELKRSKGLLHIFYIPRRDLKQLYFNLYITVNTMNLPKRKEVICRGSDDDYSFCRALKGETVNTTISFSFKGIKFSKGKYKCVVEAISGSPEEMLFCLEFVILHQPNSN

SMILES	human IL-8 (IL-8; Table 1, R^3 series)	human IL-8 (IL-8; Table 2, R^2 series)	human IL-8 (IL-8; Table 3, R^1 series)	mouse IP-10 (IP-10; Table 1, R^3 series)	mouse IP-10 (IP-10; Table 2, R^2 series)	mouse IP-10 (IP-10; Table 3, R^1 series)	mouse TLR4 (TLR4 [1]; Table 1, R^3 series)	mouse TLR4 (TLR4 [1]; Table 2, R^2 series)	mouse TLR4 (TLR4 [1]; Table 3, R^1 series)	human TLR4 (TLR4 [2]; Table 1, R^3 series)	human TLR4 (TLR4 [2]; Table 2, R^2 series)	human TLR4 (TLR4 [2]; Table 3, R^1 series)	mouse IL-6 (IL-6; Table 1, R^3 series, footnotes not given)	mouse IL-6 (IL-6; Table 2, R^2 series)	mouse IL-6 (IL-6; Table 3, R^1 series)
O=C(CSc1nc2c([nH]c3ccccc32)c(=O)n1-c1ccccc1)NC1CCCCC1 [Compound 1]	100	100	100	100	100	100	100	100	100	100	100	100	100	100	100
O=C(CSc1nc2c([nH]c3ccccc32)c(=O)n1-c1ccccc1)NC1CCCCCC1 [Compound 9]	–	118	–	–	107	–	–	99	–	–	100	–	–	126	–
O=C(CSc1nc2c([nH]c3ccccc32)c(=O)n1-c1ccccc1)NC1CCCCCCC1 [Compound 10]	–	73	–	–	98	–	–	95	–	–	64	–	–	114	–
O=C(CSc1nc2c([nH]c3ccccc32)c(=O)n1-c1ccccc1)NC1CCCC1 [Compound 11]	–	5	–	–	52	–	–	28	–	–	23	–	–	53	–
O=C(CSc1nc2c([nH]c3ccccc32)c(=O)n1-c1ccccc1)NC1CCC1 [Compound 12]	–	19	–	–	66	–	–	18	–	–	32	–	–	35	–
O=C(CSc1nc2c([nH]c3ccccc32)c(=O)n1-c1ccccc1)Nc1ccccc1 [Compound 13]	–	15	–	–	44	–	–	21	–	–	31	–	–	11	–
O=C(CSc1nc2c([nH]c3ccccc32)c(=O)n1-c1ccccc1)Nc1ccc(F)cc1 [Compound 14]	–	107	–	–	70	–	–	81	–	–	108	–	–	103	–
O=C(CSc1nc2c([nH]c3ccccc32)c(=O)n1-c1ccccc1)Nc1ccccc1F [Compound 15]	–	61	–	–	54	–	–	43	–	–	71	–	–	36	–
O=C(CSc1nc2c([nH]c3ccccc32)c(=O)n1-c1ccccc1)Nc1cccc(F)c1 [Compound 16]	–	13	–	–	45	–	–	11	–	–	39	–	–	14	–
Cc1cccc(NC(=O)CSc2nc3c([nH]c4ccccc43)c(=O)n2-c2ccccc2)c1 [Compound 17]	–	54	–	–	55	–	–	13	–	–	116	–	–	19	–
O=C(CSc1nc2c([nH]c3ccccc32)c(=O)n1-c1ccccc1)Nc1ccc2ccccc2c1 [Compound 18]	–	<1	–	–	<1	–	–	2	–	–	21	–	–	<1	–
O=C(CSc1nc2c([nH]c3ccccc32)c(=O)n1-c1ccccc1)NCc1ccco1 [Compound 19]	–	15	–	–	26	–	–	5	–	–	27	–	–	18	–
O=C(CSc1nc2c([nH]c3ccccc32)c(=O)n1-c1ccccc1)Nc1ccc2cn[nH]c2c1 [Compound 20]	–	7	–	–	<1	–	–	<1	–	–	<1	–	–	3	–
O=C(CSc1nc2c([nH]c3ccccc32)c(=O)n1-c1ccccc1)Nc1nccs1 [Compound 21]	–	5	–	–	<1	–	–	2	–	–	12	–	–	1	–
CCNC(=O)CSc1nc2c([nH]c3ccccc32)c(=O)n1-c1ccccc1 [Compound 22]	–	4	–	–	<1	–	–	<1	–	–	8	–	–	<1	–
CCCCCCNC(=O)CSc1nc2c([nH]c3ccccc32)c(=O)n1-c1ccccc1 [Compound 25]	–	7	–	–	<1	–	–	4	–	–	8	–	–	<1	–
CC(C)CNC(=O)CSc1nc2c([nH]c3ccccc32)c(=O)n1-c1ccccc1 [Compound 26]	–	11	–	–	53	–	–	24	–	–	21	–	–	44	–
CC(C)CCNC(=O)CSc1nc2c([nH]c3ccccc32)c(=O)n1-c1ccccc1 [Compound 27]	–	53	–	–	62	–	–	56	–	–	38	–	–	61	–
CC(C)(C)CCNC(=O)CSc1nc2c([nH]c3ccccc32)c(=O)n1-c1ccccc1 [Compound 28]	–	95	–	–	85	–	–	126	–	–	72	–	–	99	–
CCC(C)CCNC(=O)CSc1nc2c([nH]c3ccccc32)c(=O)n1-c1ccccc1 (stereo not drawn) [Compound 29]	–	23	–	–	45	–	–	29	–	–	17	–	–	30	–
CCCC(C)NC(=O)CSc1nc2c([nH]c3ccccc32)c(=O)n1-c1ccccc1 (stereo not drawn) [Compound 30]	–	6	–	–	55	–	–	17	–	–	13	–	–	12	–
CCC(CC)NC(=O)CSc1nc2c([nH]c3ccccc32)c(=O)n1-c1ccccc1 [Compound 31]	–	<1	–	–	26	–	–	8	–	–	11	–	–	10	–
O=C(CSc1nc2c([nH]c3ccccc32)c(=O)n1-c1ccccc1)NCC1CCCO1 (stereo not drawn) [Compound 33]	–	8	–	–	54	–	–	21	–	–	13	–	–	23	–
O=C(CSc1nc2c([nH]c3ccccc32)c(=O)n1C1CCCCC1)NC1CCCCC1 [Compound 36]	–	–	27	–	–	61	–	–	56	–	–	40	–	–	71
O=C(CSc1nc2c([nH]c3ccccc32)c(=O)n1-c1ccc(F)cc1)NC1CCCCC1 [Compound 37]	–	–	5	–	–	72	–	–	41	–	–	51	–	–	48
